Test results reported in PubChem BioAssay AID330 (DTP/NCI, 2004).
Several values for one entry are separate records, joined by “and”; a condition that tells them apart may be missing. Identical values can stand only once. Toxic doses and inconclusive results are not listed. Rule for the calls: active = survival T/C of 150% or more; inactive = T/C below 125% in these data.

Tested on: P388 leukemia ip, CD2F1 mice, survival T/C
Experiment: NCI In Vivo Anticancer Drug Screen. Data for tumor model P388 Leukemia (intraperitoneal) in CD2F1 (CDF1) mice
Settings: endpoint: median survival time, higher = longer survival
Procedure, shortened: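 Mice carrying the transplanted tumor received test compound or vehicle. Survival was recorded in each group, and the value is the treated-group measurement divided by that of the vehicle-treated control group.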

[1] = dose: 60.0 mg/kg/injection, schedule: Q01DX005 (ip), vehicle: saline with Tween-80
[2] = dose: 120.0 mg/kg/injection, schedule: Q01DX005 (ip), vehicle: saline with Tween-80
[3] = dose: 240.0 mg/kg/injection, schedule: Q01DX005 (ip), vehicle: saline with Tween-80
[4] = dose: 12.5 mg/kg/injection, schedule: Q01DX009 (ip), vehicle: Klucel (hydroxypropylcellulose) (HPC)
[5] = dose: 25.0 mg/kg/injection, schedule: Q01DX009 (ip), vehicle: Klucel (hydroxypropylcellulose) (HPC)
[6] = dose: 6.25 mg/kg/injection, schedule: Q01DX005 (ip), vehicle: saline
[7] = dose: 12.5 mg/kg/injection, schedule: Q01DX005 (ip), vehicle: saline
[8] = dose: 60.0 mg/kg/injection, schedule: Q01DX005 (ip), vehicle: saline
[9] = dose: 120.0 mg/kg/injection, schedule: Q01DX005 (ip), vehicle: saline
[10] = dose: 240.0 mg/kg/injection, schedule: Q01DX005 (ip), vehicle: saline
[11] = dose: 60.0 mg/kg/injection, schedule: Q01DX005 (ip), vehicle: Klucel (hydroxypropylcellulose) (HPC)
[12] = dose: 120.0 mg/kg/injection, schedule: Q01DX005 (ip), vehicle: Klucel (hydroxypropylcellulose) (HPC)
[13] = dose: 240.0 mg/kg/injection, schedule: Q01DX005 (ip), vehicle: Klucel (hydroxypropylcellulose) (HPC)
[14] = dose: 50.0 mg/kg/injection, schedule: Q01DX009 (ip), vehicle: Klucel (hydroxypropylcellulose) (HPC)
[15] = dose: 100.0 mg/kg/injection, schedule: Q01DX009 (ip), vehicle: Klucel (hydroxypropylcellulose) (HPC)

Measured: T/C

COC1=CC(C)C2CC3OC(=O)CC4C(C)C(=O)C(O)C(C2(C)C1=O)C34C (stereo unspecified)
inactive: dose: 2.5 mg/kg/injection, schedule: Q01DX009 (ip), vehicle: Klucel (hydroxypropylcellulose) (HPC) 90 % of control | dose: 5.0 mg/kg/injection, schedule: Q01DX009 (ip), vehicle: Klucel (hydroxypropylcellulose) (HPC) 100 % of control | dose: 10.0 mg/kg/injection, schedule: Q01DX009 (ip), vehicle: Klucel (hydroxypropylcellulose) (HPC) 106 % of control | dose: 20.0 mg/kg/injection, schedule: Q01DX009 (ip), vehicle: Klucel (hydroxypropylcellulose) (HPC) 98 % of control

CN1CCC(O)(C(O)(c2ccccc2)c2ccccc2)CC1
inactive: [1] 96 % of control | [2] 100 % of control | [3] 103 % of control

CC(CC1CCCCC1)NCCC(c1ccccc1)c1ccccc1 (stereo unspecified)
inactive: [4] 116 % of control | [5] 100 % of control

Cc1cc(=O)c2c(N(C)C)cccc2[nH]1
inactive: dose: 50.0 mg/kg/injection, schedule: Q01DX009 (ip), vehicle: acid diluted with saline 104 % of control | dose: 100.0 mg/kg/injection, schedule: Q01DX009 (ip), vehicle: acid diluted with saline 91 % of control | dose: 200.0 mg/kg/injection, schedule: Q01DX009 (ip), vehicle: acid diluted with saline 96 % of control

CN1CCCN2CCCN(C)P12
inactive: [6] 99 % of control | [7] 98 % of control | dose: 25.0 mg/kg/injection, schedule: Q01DX005 (ip), vehicle: saline 105 % of control

Clc1cnc(/N=C/c2ccc(/C=N/c3ncc(Cl)cc3Cl)cc2)c(Cl)c1
inactive: dose: 50.0 mg/kg/injection, schedule: Q01DX009 (ip), vehicle: saline 100 % of control | dose: 100.0 mg/kg/injection, schedule: Q01DX009 (ip), vehicle: saline 101 % of control | dose: 200.0 mg/kg/injection, schedule: Q01DX009 (ip), vehicle: saline 102 % of control

NC(=O)C12OC3CC(CC(C3)O1)O2
inactive: [8] 117 % of control | [9] 98 % of control | [10] 99 % of control

O=C(Nc1cccc(C(F)(F)F)c1)C(Cl)=C(Cl)Cl
inactive: [11] 103 % of control | [12] 111 % of control | [13] 95 % of control

Cc1cccc(Cl)c1NC(=O)Nc1ccc(Cl)cc1C(=O)c1ccccc1
inactive: [1] 99 % of control | [2] 94 % of control | [3] 101 % of control

O=C(/C=N/O)Nc1ccccc1
inactive: [4] 100 % of control and 107 % of control | [5] 99 % of control and 100 % of control and 106 % of control | [14] 103 % of control and 92 % of control | [15] 101 % of control and 109 % of control and 114 % of control

CCN(CCCNc1cc(OC)cc2cccnc12)C(C)C
inactive: dose: 3.12 mg/kg/injection, schedule: Q01DX005 (ip), vehicle: saline 98 % of control | [6] 92 % of control | [7] 107 % of control

N#CN=CN1CCN(c2ccccc2)CC1
inactive: dose: 50.0 mg/kg/injection, schedule: Q01DX009 (ip), vehicle: saline with Tween-80 100 % of control | dose: 100.0 mg/kg/injection, schedule: Q01DX009 (ip), vehicle: saline with Tween-80 97 % of control | dose: 200.0 mg/kg/injection, schedule: Q01DX009 (ip), vehicle: saline with Tween-80 99 % of control

O=C(/C=C/c1ccccc1)C/C(=N/O)C(=O)NO
inactive: [8] 104 % of control | [9] 101 % of control | [10] 103 % of control

Cc1cc(=O)oc2c(-c3ccccc3)n[nH]c(=O)c12
inactive: [11] 104 % of control | [12] 95 % of control | [13] 97 % of control

C=CCNC(=S)Nc1ccc(NC(C)=O)c(OC)c1
inactive: [14] 102 % of control | [15] 102 % of control | dose: 200.0 mg/kg/injection, schedule: Q01DX009 (ip), vehicle: Klucel (hydroxypropylcellulose) (HPC) 86 % of control
